Results: patent US12077503B2, “Substituted cyclic amides and their use as herbicides” (FMC CORPORATION, priority 2015, dated 2024)

What was measured:
Format in all cases: in vivo
[1] = system: blackgrass (Alopecurus myosuroides); test: Test A postemergence; conditions: for Blackgrass plant response rating: 125 g ai/ha, postemergence, visual injury rating on 0 to 100 scale (0 no effect, 100 complete control), approx. 10 d; for Plant response rating, Blackgrass: Postemergence, 500 g ai/ha, 0 to 100 scale where 0 is no effect and 100 is complete control
Source text: (§1) Seeds of plant species selected from barnyardgrass (Echinochloa crus-galli), Kochia (Kochia scoparia), ragweed (common ragweed, Ambrosia elatior), ryegrass, Italian (Italian ryegrass, Lolium multiflorum), crabgrass, large (Digitaria sanguinalis), giant foxtail (Setaria faberii), green foxtail (Setaria viridis), morningglory (Ipomoea spp.), pigweed (Amaranthus retroflexus), velvetleaf (Abutilon theophrasti), wheat (Triticum aestivum), and corn (Zea mays) were planted into a blend of loam soil and sand and treated preemergence with a directed soil spray using test chemicals formulated in anon-phytotoxic solvent mixture which included a surfactant.
(§2) At the same time, plants selected from these crop and weed species and also blackgrass (Alopecurus myosuroides), and Galium (catchweed bedstraw, Galium aparine) were planted in pots containing the same blend of loam soil and sand and treated with postemergence applications of test chemicals formulated in the same manner. Plants ranged in height from 2 to 10 cm and were in the one- to two-leaf stage for the postemergence treatment. Treated plants and untreated controls were maintained in a greenhouse for approximately 10 d, after which time all treated plants were compared to untreated controls and visually evaluated for injury. Plant response ratings, summarized in Table A, are based on a 0 to 100 scale where 0 is no effect and 100 is complete control. A dash (-) response means no test result.

[2] = system: ragweed (common ragweed, Ambrosia elatior); test: Test A postemergence
Source text: as §1, §2

[3] = system: giant foxtail (Setaria faberii); test: Test A postemergence
Source text: as §1, §2

[4] = system: ryegrass, Italian (Italian ryegrass, Lolium multiflorum); test: Test A postemergence
Source text: as §1, §2

[5] = system: barnyardgrass (Echinochloa crus-galli); test: Test A postemergence; conditions: for Barnyardgrass plant response rating: 125 g ai/ha, postemergence, visual injury rating on 0 to 100 scale (0 no effect, 100 complete control), approx. 10 d; for Plant response rating, Barnyardgrass: Postemergence, 500 g ai/ha, 0 to 100 scale where 0 is no effect and 100 is complete control
Source text: as §1, §2

corn (Zea mays) = test: Test A postemergence
Source text: as §1, §2

[6] = system: pigweed (Amaranthus retroflexus); test: Test A postemergence
Source text: as §1, §2

[7] = system: Galium (catchweed bedstraw, Galium aparine); test: Test A postemergence
Source text: as §1, §2

Kochia (Kochia scoparia) [8] = test: Test A postemergence
Source text: as §1, §2

[9] = system: wheat (Triticum aestivum); test: Test A postemergence
Source text: as §1, §2

[10] = system: barnyardgrass (Echinochloa crus-galli); test: Test B flooded paddy test; conditions: Flood, 0 to 100 scale where 0 is no effect and 100 is complete control, 13 to 15 d
Procedure, shortened: (§3)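 Evaluation by eye, against controls, occurred 13–15 d post-treatment in a greenhouse, using a 0 (no effect) to 100 (complete control) scale. Application was into the paddy water, 3 cm deep over the soil, on 2-leaf plants.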

[11] = system: ducksalad (Heteranthera limosa); test: Test B flooded paddy test; conditions: Flood, 0 to 100 scale where 0 is no effect and 100 is complete control, 13 to 15 d
Procedure, shortened: as §3

rice (Oryra sativa) = test: Test B flooded paddy test; conditions: Flood, 0 to 100 scale where 0 is no effect and 100 is complete control, 13 to 15 d
Procedure, shortened: as §3

[12] = system: sedge, umbrella (small-flower umbrella sedge, Cyperus difformis); test: Test B flooded paddy test; conditions: Flood, 0 to 100 scale where 0 is no effect and 100 is complete control, 13 to 15 d
Procedure, shortened: as §3

[13] = system: ragweed (common ragweed, Ambrosia elatior); test: Test A preemergence; conditions: Preemergence; for Plant response rating, Ragweed: 125 g ai/ha, visual injury after approximately 10 d, 0 to 100 scale where 0 is no effect and 100 is complete control; for Ragweed plant response rating (0 to 100 scale, 0 is no effect, 100 is complete control): 500 g ai/ha, visual injury approx. 10 d
Source text: as §1, §2

[14] = system: giant foxtail (Setaria faberii); test: Test A preemergence; conditions: Preemergence; for Plant response rating, Foxtail, Giant: 125 g ai/ha, visual injury after approximately 10 d, 0 to 100 scale where 0 is no effect and 100 is complete control; for Foxtail, Giant plant response rating (0 to 100 scale, 0 is no effect, 100 is complete control): 500 g ai/ha, visual injury approx. 10 d
Source text: as §1, §2

[15] = system: ryegrass, Italian (Italian ryegrass, Lolium multiflorum); test: Test A preemergence; conditions: Preemergence; for Plant response rating, Ryegrass, Italian: 125 g ai/ha, visual injury after approximately 10 d, 0 to 100 scale where 0 is no effect and 100 is complete control; for Ryegrass, Italian plant response rating (0 to 100 scale, 0 is no effect, 100 is complete control): 500 g ai/ha, visual injury approx. 10 d
Source text: as §1, §2

[16] = system: barnyardgrass (Echinochloa crus-galli); test: Test A preemergence; conditions: Preemergence; for Plant response rating, Barnyardgrass: 125 g ai/ha, visual injury after approximately 10 d, 0 to 100 scale where 0 is no effect and 100 is complete control; for Barnyardgrass plant response rating (0 to 100 scale, 0 is no effect, 100 is complete control): 500 g ai/ha, visual injury approx. 10 d
Source text: as §1, §2

[17] = system: pigweed (Amaranthus retroflexus); test: Test A preemergence; conditions: Preemergence; for Plant response rating, Pigweed: 125 g ai/ha, visual injury after approximately 10 d, 0 to 100 scale where 0 is no effect and 100 is complete control; for Pigweed plant response rating (0 to 100 scale, 0 is no effect, 100 is complete control): 500 g ai/ha, visual injury approx. 10 d
Source text: as §1, §2

Kochia (Kochia scoparia) [18] = test: Test A preemergence; conditions: Preemergence; for Plant response rating, Kochia: 125 g ai/ha, visual injury after approximately 10 d, 0 to 100 scale where 0 is no effect and 100 is complete control; for Kochia plant response rating (0 to 100 scale, 0 is no effect, 100 is complete control): 500 g ai/ha, visual injury approx. 10 d
Source text: as §1, §2

[19] = 125 g ai/ha, postemergence, visual injury rating on 0 to 100 scale (0 no effect, 100 complete control), approx. 10 d
[20] = Postemergence, 500 g ai/ha, 0 to 100 scale where 0 is no effect and 100 is complete control
[21] = 125 g ai/ha, postemergence, visual rating after approx. 10 d, 0 to 100 scale (0 no effect, 100 complete control)

With O=C1NCC(c2ccc(C(F)(F)F)c(F)c2)C1C(=O)Nc1ccc(F)cc1F (racemic) [Compound 522] the “Blackgrass plant response rating” value [1] was 30, the “Plant response rating, Blackgrass” value [1] was 50 and the “Ragweed plant response rating” value [2, 19] was 0. For the same compound, the “Plant response rating, Ragweed” value [2, 20] was 0, the “Foxtail, Giant plant response rating” value [3, 19] was 90 and the “Plant response rating, Foxtail, Giant” value [3, 20] was 90. The “Ryegrass, Italian plant response rating” value [4, 19] was 20, the “Plant response rating, Ryegrass, Italian” value [4, 20] was 40 and the “Barnyardgrass plant response rating” value [5] was 60. The “Plant response rating, Barnyardgrass” value [5] was 80, the “Corn plant response rating” value (corn (Zea mays); [19]) was 0 and the “Plant response rating, Corn” value (corn (Zea mays); [20]) was 20. The “Pigweed plant response rating” value [6, 19] was 20, the “Plant response rating, Pigweed” value [6, 20] was 40 and the “Galium plant response rating” value [7, 19] was 30. The “Plant response rating, Galium” value [7, 20] was 60, the “Kochia plant response rating” value (Kochia (Kochia scoparia) [8]; [19]) was 20 and the “Plant response rating, Kochia” value (Kochia (Kochia scoparia) [8]; [20]) was 50. For the same compound, the “Wheat plant response rating” value [9, 19] was 0, the “Plant response rating, Wheat” value [9, 20] was 20 and the “Plant response rating, Barnyardgrass” value ([10]; 250 g ai/ha) was 40. For the same compound, the “Plant response rating, Ducksalad” value ([11]; 250 g ai/ha) was 100, the “Plant response rating, Rice” value (rice (Oryra sativa); 250 g ai/ha) was 0 and the “Plant response rating, Sedge, Umbrella” value ([12]; 250 g ai/ha) was 0. For the same compound, the “Plant response rating, Ragweed” value [13] was 0, the “Ragweed plant response rating (0 to 100 scale, 0 is no effect, 100 is complete control)” value [13] was 30 and the “Plant response rating, Foxtail, Giant” value [14] was 90. The “Foxtail, Giant plant response rating (0 to 100 scale, 0 is no effect, 100 is complete control)” value [14] was 90, the “Plant response rating, Ryegrass, Italian” value [15] was 30 and the “Ryegrass, Italian plant response rating (0 to 100 scale, 0 is no effect, 100 is complete control)” value [15] was 60. For the same compound, the “Plant response rating, Barnyardgrass” value [16] was 90, the “Barnyardgrass plant response rating (0 to 100 scale, 0 is no effect, 100 is complete control)” value [16] was 90 and the “Plant response rating, Pigweed” value [17] was 70. For the same compound, the “Pigweed plant response rating (0 to 100 scale, 0 is no effect, 100 is complete control)” value [17] was 80, the “Plant response rating, Kochia” value (Kochia (Kochia scoparia) [18]) was 60 and the “Kochia plant response rating (0 to 100 scale, 0 is no effect, 100 is complete control)” value (Kochia (Kochia scoparia) [18]) was 60.

In the case of O=C1NCC(c2ccc(Oc3ccccc3)cc2)C1C(=O)Nc1cccc(F)c1F (racemic) [Compound 536], the “Blackgrass plant response rating” value [1] is reported as 0, the “Plant response rating, Blackgrass” value [1] is reported as 0 and the “Plant response rating, Ragweed” value [2, 21] is reported as 0. For the same compound, the “Plant response rating, Ragweed” value [2, 20] was 0, the “Plant response rating, Foxtail, Giant” value [3, 21] was 0 and the “Plant response rating, Foxtail, Giant” value [3, 20] was 30. For the same compound, the “Plant response rating, Ryegrass, Italian” value [4, 21] was 0, the “Plant response rating, Ryegrass, Italian” value [4, 20] was 0 and the “Barnyardgrass plant response rating” value [5] was 0. For the same compound, the “Plant response rating, Barnyardgrass” value [5] was 0, the “Plant response rating, Corn” value (corn (Zea mays); [21]) was 0 and the “Plant response rating, Corn” value (corn (Zea mays); [20]) was 0. The “Plant response rating, Pigweed” value [6, 21] was 0, the “Plant response rating, Pigweed” value [6, 20] was 0 and the “Plant response rating, Galium” value [7, 21] was 0. For the same compound, the “Plant response rating, Galium” value [7, 20] was 0, the “Plant response rating, Kochia” value (Kochia (Kochia scoparia) [8]; [21]) was 0 and the “Plant response rating, Kochia” value (Kochia (Kochia scoparia) [8]; [20]) was 0. The “Plant response rating, Wheat” value [9, 21] was 0, the “Plant response rating, Wheat” value [9, 20] was 0 and the “Plant response rating, Barnyardgrass” value ([10]; 500 g ai/ha) was 30. The “Plant response rating, Ducksalad” value ([11]; 500 g ai/ha) was 0, the “Plant response rating, Rice” value (rice (Oryra sativa); 500 g ai/ha) was 15 and the “Plant response rating, Sedge, Umbrella” value ([12]; 500 g ai/ha) was 0. For the same compound, the “Plant response rating, Ragweed” value [13] was 0, the “Ragweed plant response rating (0 to 100 scale, 0 is no effect, 100 is complete control)” value [13] was 0 and the “Plant response rating, Foxtail, Giant” value [14] was 0. For the same compound, the “Foxtail, Giant plant response rating (0 to 100 scale, 0 is no effect, 100 is complete control)” value [14] was 20, the “Plant response rating, Ryegrass, Italian” value [15] was 0 and the “Ryegrass, Italian plant response rating (0 to 100 scale, 0 is no effect, 100 is complete control)” value [15] was 0. The “Plant response rating, Barnyardgrass” value [16] was 0, the “Barnyardgrass plant response rating (0 to 100 scale, 0 is no effect, 100 is complete control)” value [16] was 0 and the “Plant response rating, Pigweed” value [17] was 0. The “Pigweed plant response rating (0 to 100 scale, 0 is no effect, 100 is complete control)” value [17] was 0, the “Plant response rating, Kochia” value (Kochia (Kochia scoparia) [18]) was 0 and the “Kochia plant response rating (0 to 100 scale, 0 is no effect, 100 is complete control)” value (Kochia (Kochia scoparia) [18]) was 0.
